Measured values published in patent US20120108641A1, “ANTITUMOR COMBINATION INCLUDING AVE8062 AND SORAFENIB” (SANOFI, priority 2009, published 2012).
Several values for one entry are separate records, joined by “and”; a condition that tells them apart may be missing. Equal entries are not always repeated. Where two headings read alike, the source gives them in different places.

Tests used:
[1] = system: NCI-H460 human non-small cell lung tumour; assay: Study 1: sorafenib administered simultaneously with AVE8062, antitumour activity; assay type: in vivo, female SCID mice; conditions: AVE8062 22.3 mg/kg per injection i.v. days 9, 13
Text: (§1) A product is considered to be active if the log10 cell kill is greater than or equal to 0.7.
(§2) The activity in this case is acknowledged for a net log cell kill that is positive (>0). A cytostatic activity corresponds to a net log cell kill of 0, that is to say that the treatment time is equal to the duration of the antitumour effect.
(§3) In the case of an early tumour treatment, the implanted animals are distributed randomly in various groups which are, or are not (controls), intended to receive the treatment(s). […] The animals are observed and weighed every day. A dose which induces a weight loss of 20% or more at the lowest point (average of the group) or a mortality of 10% or more is considered to be toxic. The tumour activity is evaluated at the highest non-toxic dose, or at the highest dose tested, within the context of a non-cytotoxic agent.
(§4) The tumours are measured 2 or 3 times a week until the tumour reaches approximately 2 g or until the animal dies, if this occurs before the tumour reaches 2 g. The animals are autopsied when they are sacrificed.
(§5) The antitumor activity is determined in accordance with various recorded parameters, such as the dose (mg/kg), the method of administration, the administration time, the toxicity and the log10 cell kill, which depends on the tumour growth delay and also on the tumour doubling time.
(§6) Within the context of the following studies, the AVE8062, in hydrochloride form, is formulated in water with 0.9% NaCl.
Study 1: Sorafenib Administered Simultaneously with AVE8062 (Table I)
The AVE8062 was administered intravenously on days 9 and 13 post tumour implantation. The sorafenib was administered orally from day 9 to day 24. When the two agents were administered in combination, the same schedules were used as for the agents alone, the combination of the two agents having been carried out simultaneously on days 9 and 13.

[2] = system: NCI-H460 human non-small cell lung tumour; assay: Study 2: sorafenib administered 1 h after AVE8062, antitumour activity; assay type: in vivo, female SCID mice
Text: as §1, §3, §4, §5, §6
Study 2: Sorafenib Administered 1 h after AVE8062 in the Combination (Table II)
(§7) The AVE8062 was administered intravenously on days 10 and 14 post tumour implantation. The sorafenib was administered orally from day 10 to day 14. The two agents were administered in combination, according to the same schedules as those used for the agents alone, but the administration of sorafenib having been staggered one hour after the administration of the AVE8062.

[3] = system: NCI-H460 human non-small cell lung tumour; assay: Study 3: sorafenib administered 24 h after AVE8062, antitumour activity; assay type: in vivo, female SCID mice
Text: as §1, §2, §3, §4, §5, §6
Study 3: Sorafenib Administered 24 h after AVE8062 in the Combination (Table III)
The AVE8062 was administered intravenously on days 9 and 14 post implantation of the NCI-H460 pulmonary tumour in female SCID mice. The sorafenib was administered orally from day 9 to day 20. When the 2 agents were administered in combination, the same schedules were used as for the agents alone, but the administrations of sorafenib were started 24 hours after that of AVE8062.

[4] = Description: as §3, §6, §7
[5] = Study 3: toxicity, highest non-toxic dose; assay type: in vivo, female SCID mice; conditions: Study 3, AVE8062 alone i.v. days 9, 14
Description: The animals are observed and weighed every day.
The AVE8062 was administered intravenously on days 9 and 14 post implantation of the NCI-H460 pulmonary tumour in female SCID mice.

[6] = AVE8062 22.3 mg/kg/admin i.v. days 10, 14
[7] = AVE8062 22.3 mg/kg per injection i.v. days 9, 14
[8] = sorafenib 100.0 mg/kg/admin p.o. days 10-14
[9] = sorafenib 100.0 mg/kg per injection p.o. days 9-20

COc1ccc(/C=C\c2cc(OC)c(OC)c(OC)c2)cc1NC(=O)[C@@H](N)CO [AVE8062, (Z)—N-[2-methoxy-5-[2-(3,4,5-trimethoxyphenyl)vinyl]phenyl]-L-serinamide]
CR [1]: 0/6 | Observations [1]: Inactive | PR [1]: 0/6 | log cell kill [1]: 0.6 | net log cell kill [1]: −0.1 | Observations [2, 6]: HNTD - active | Regressions complete [2, 6]: 0/5 | T − C [2, 6]: 5.8 days | log cell kill [2, 6]: 1.1 | Regressions partial ([2]; AVE8062 22.3 mg/kg/admin i.v. days 10, 14, 22.3 mg/kg): without inducing tumour regression and 0/5 | CR [3, 7]: 0/6 | Observations [3, 7]: Active | PR [3, 7]: 0/6 | gross log cell kill [3, 7]: 1.7 | net log cell kill [3, 7]: 0.3 | Mortality (day of death) [4, 6]: 0/5 | % BWC (day of lowest point) ([4]; AVE8062 22.3 mg/kg/admin i.v. days 10, 14, lowest point day 21): −3.2 (21) % | highest non-toxic dose (HNTD) ([4]; Study 2, AVE8062 alone i.v. days 10, 14): 22.3 mg/kg per injection | highest non-toxic dose (HNTD) [5]: 36 mg/kg per injection

CNC(=O)c1cc(Oc2ccc(NC(=O)Nc3ccc(Cl)c(C(F)(F)F)c3)cc2)ccn1 [Sorafenib, 4-[4-[[4-chloro-3-(trifluoromethyl)phenyl]carbamoylamino]phenoxy]-N-methylpyridine-2-carboxamide]
Observations [2, 8]: HDT - Active | Regressions complete [2, 8]: 0/6 | Regressions partial [2, 8]: 0/6 | T − C [2, 8]: 6.1 days | log cell kill [2, 8]: 1.1 | CR [3, 9]: 0/6 | Observations [3, 9]: HDT - no cytostasis | PR [3, 9]: 0/6 | gross log cell kill [3, 9]: 2.4 | net log cell kill [3, 9]: −0.4 | Mortality (day of death) [4, 8]: 0/6
